Test results as given in US20240190880A1 (THE REGENTS OF THE UNIVERSITY OF MICHIGAN, priority 2021, published 2024).
Read-outs that look alike come from different tables or passages of the source.

Biological target: T1, ER (Homo sapiens, UniProt P03372)
T1 construct: host or cells: T47D and MCF7 human breast cancer cells
T1 sequence (P03372 1-595): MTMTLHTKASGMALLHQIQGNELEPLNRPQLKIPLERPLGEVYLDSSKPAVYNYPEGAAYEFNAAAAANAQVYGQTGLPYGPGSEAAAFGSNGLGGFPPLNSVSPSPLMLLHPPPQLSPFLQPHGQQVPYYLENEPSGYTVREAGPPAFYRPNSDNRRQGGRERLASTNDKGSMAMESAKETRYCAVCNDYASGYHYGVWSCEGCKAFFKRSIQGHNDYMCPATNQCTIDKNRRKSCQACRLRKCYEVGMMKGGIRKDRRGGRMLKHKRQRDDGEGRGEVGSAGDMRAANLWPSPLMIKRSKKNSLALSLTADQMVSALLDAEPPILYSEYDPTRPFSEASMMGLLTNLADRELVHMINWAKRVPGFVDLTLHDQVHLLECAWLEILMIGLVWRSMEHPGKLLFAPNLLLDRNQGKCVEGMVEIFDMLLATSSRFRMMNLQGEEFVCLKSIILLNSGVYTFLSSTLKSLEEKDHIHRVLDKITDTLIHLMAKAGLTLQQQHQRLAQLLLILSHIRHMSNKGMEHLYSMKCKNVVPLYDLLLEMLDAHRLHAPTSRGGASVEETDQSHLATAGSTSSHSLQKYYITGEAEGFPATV
Test: ER degradation activity, in-cell western blot analysis in T47D cells
Format: cell-based
Procedure, shortened: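 Cells were seeded overnight, exposed to diluted compounds for 16 hours, then stained with primary antibodies and with infrared-labelled secondary antibodies (1:1000, 1 h RT). Plates were scanned on a CLX reader, and ER levels were normalised to DMSO-treated wells.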

[1] = 16 hours, Table A does not say which cell line (T47D or MCF7), read-out: Potency (DC50)
[2] = compounds 16 hours, Table A does not say whether T47D or MCF7, read-out: Potency (DC50)

Row | SMILES | DC50 [1] [nM] | DC50 [2] [nM]
1 | C[C@@H]1Cc2c([nH]c3ccccc23)[C@@H](c2c(F)cc(C3CCN(C(=O)[C@H]4CC[C@@H](N5Cc6cc7c(cc6C5)C(=O)N(C5CCC(=O)NC5=O)C7=O)CC4)CC3)cc2F)N1CC(F)F (stereo partly drawn) [E 392, 6-((1S,4s)-4-(4-(4-((1R,3R)-2-(2,2-difluoroethyl)-3-methyl-2,3,4,9-tetrahydro-1H-pyrido[3,4-b]indol-1-yl)-3,5-difluorophenyl)piperidine-1-carbonyl)cyclohexyl)-2-(2,6-dioxopiperidin-3-yl)-6,7-dihydropyrrolo[3,4-f]isoindole-1,3(2H,5H)-dione] | 10 to 100 | 
2 | O=C1CCC(N2C(=O)c3cc4c(cc3C2=O)CC2(C4)CN(CC(=O)N3CC(Oc4ccc([C@@H]5c6ccc(O)cc6CC[C@@H]5c5ccccc5)cc4)C3)C2)C(=O)N1 (stereo partly drawn) [E 503, 2′-(2,6-dioxopiperidin-3-yl)-1-(2-(3-(4-((1R,2S)-6-hydroxy-2-phenyl-1,2,3,4-tetrahydronaphthalen-1-yl)phenoxy)azetidin-1-yl)-2-oxoethyl)-5′,7′-dihydro-1′H-spiro[azetidine-3,6′-cyclopenta[f]isoindole]-1′,3′(2′H)-dione] |  | > 100
3 | C[C@@H]1Cc2c([nH]c3ccccc23)[C@@H](c2c(F)cc(N3CCC(CN4CCC(C(=O)N5Cc6cc7c(cc6C5)C(=O)N(C5CCC(=O)NC5=O)C7=O)CC4)C3)cc2F)N1CC(F)F (stereo partly drawn) [E 57, 6-(1-((1-(4-((1R,3R)-2-(2,2-difluoroethyl)-3-methyl-2,3,4,9-tetrahydro-1H-pyrido[3,4-b]indol-1-yl)-3,5-difluorophenyl)pyrrolidin-3-yl)methyl)piperidine-4-carbonyl)-2-(2,6-dioxopiperidin-3-yl)-6,7-dihydropyrrolo[3,4-f]isoindole-1,3(2H,5H)-dione] | < 10 | 
4 | C[C@@H]1Cc2c([nH]c3ccccc23)[C@@H](c2c(F)cc(N3CCC(N4CCN(CC(=O)N5Cc6cc7c(cc6C5)C(=O)N(C5CCC(=O)NC5=O)C7=O)CC4)CC3)cc2F)N1CC(F)F (stereo partly drawn) [E 95, 6-(2-(4-(1-(4-((1R,3R)-2-(2,2-difluoroethyl)-3-methyl-2,3,4,9-tetrahydro-1H-pyrido[3,4-b]indol-1-yl)-3,5-difluorophenyl)piperidin-4-yl)piperazin-1-yl)acetyl)-2-(2,6-dioxopiperidin-3-yl)-6,7-dihydropyrrolo[3,4-f]isoindole-1,3(2H,5H)-dione] | < 10 | 
5 | C[C@@H]1Cc2cc(O)ccc2[C@@H](c2c(F)cc(N3CCC4(CN(CC(=O)N5Cc6cc7c(cc6C5)C(=O)N(C5CCC(=O)NC5=O)C7)C4)C3)cc2F)N1CC(F)F (stereo partly drawn) [E 38, 3-(6-(2-(6-(4-((1S,3R)-2-(2,2-difluoroethyl)-6-hydroxy-3-methyl-1,2,3,4-tetrahydroisoquinolin-1-yl)-3,5-difluorophenyl)-2,6-diazaspiro[3.4]octan-2-yl)acetyl)-1-oxo-3,5,6,7-tetrahydropyrrolo[3,4-f]isoindol-2(1H)-yl)piperidine-2,6-dione] | 10 to 100 | 
6 | C[C@@H]1Cc2c([nH]c3ccccc23)[C@@H](c2c(F)cc(N3CCC4(CCN(CC(=O)N5Cc6cc7c(cc6C5)C(=O)N(C5CCC(=O)NC5=O)C7=O)C4)CC3)cc2F)N1CC(F)F (stereo partly drawn) [E 62, 6-(2-(8-(4-((1R,3R)-2-(2,2-difluoroethyl)-3-methyl-2,3,4,9-tetrahydro-1H-pyrido[3,4-b]indol-1-yl)-3,5-difluorophenyl)-2,8-diazaspiro[4.5]decan-2-yl)acetyl)-2-(2,6-dioxopiperidin-3-yl)-6,7-dihydropyrrolo[3,4-f]isoindole-1,3(2H,5H)-dione] | < 10 | 
7 | C[C@@H]1Cc2c([nH]c3ccccc23)[C@@H](c2c(F)cc(C3CCC(C(=O)N4CC(N5Cc6cc7c(cc6C5)C(=O)N(C5CCC(=O)NC5=O)C7=O)C4)CC3)cc2F)N1CC(F)F (stereo partly drawn) [E249, 6-(1-(4-(4-((1R,3R)-2-(2,2-difluoroethyl)-3-methyl-2,3,4,9-tetrahydro-1H-pyrido[3,4-b]indol-1-yl)-3,5-difluorophenyl)cyclohexane-1-carbonyl)azetidin-3-yl)-2-(2,6-dioxopiperidin-3-yl)-6,7-dihydropyrrolo[3,4-f]isoindole-1,3(2H,5H)-dione] | > 100 | 
8 | C[C@@H]1Cc2c([nH]c3ccccc23)[C@@H](c2c(F)cc(C(=O)N3CCC4(CC3)CC(CN3Cc5cc6c(cc5C3)C(=O)N(C3CCC(=O)NC3=O)C6=O)C4)cc2F)N1CC(F)F (stereo partly drawn) [E 369, 6-((7-(4-((1R,3R)-2-(2,2-difluoroethyl)-3-methyl-2,3,4,9-tetrahydro-1H-pyrido[3,4-b]indol-1-yl)-3,5-difluorobenzoyl)-7-azaspiro[3.5]nonan-2-yl)methyl)-2-(2,6-dioxopiperidin-3-yl)-6,7-dihydropyrrolo[3,4-f]isoindole-1,3(2H,5H)-dione] | > 100 | 
9 | O=C1CCC(N2Cc3cc4c(cc3C2=O)CN(C2CCN(CC3CCN(c5ccc([C@@H]6c7ccc(O)cc7CC[C@@H]6c6ccc(F)cc6)cc5)CC3)CC2)C4)C(=O)N1 (stereo partly drawn) [E 275, 3-(6-(1-((1-(4-((1R,2S)-2-(4-fluorophenyl)-6-hydroxy-1,2,3,4-tetrahydronaphthalen-1-yl)phenyl)piperidin-4-yl)methyl)piperidin-4-yl)-1-oxo-3,5,6,7-tetrahydropyrrolo[3,4-f]isoindol-2(1H)-yl)piperidine-2,6-dione] | < 10 | 
10 | COc1c2c(cc3c1CN(C1CCC(=O)NC1=O)C3=O)CN(CC(=O)N1CC3(CCN(c4cc(F)c([C@@H]5c6ccc7[nH]ncc7c6C[C@@H](C)N5CC(F)F)c(F)c4)CC3)C1)C2 (some centres unmarked) [E 441] |  | < 10
11 | O=C1CCC(N2C(=O)c3cc4c(cc3C2=O)CN(CC2CCN(C(=O)C3(F)CN(c5ccc([C@@H]6c7ccc(O)cc7CC[C@@H]6c6ccccc6)cc5)C3)CC2)C4)C(=O)N1 (stereo partly drawn) [E 203, 2-(2,6-dioxopiperidin-3-yl)-6-((1-(3-fluoro-1-(4-((1R,2S)-6-hydroxy-2-phenyl-1,2,3,4-tetrahydronaphthalen-1-yl)phenyl)azetidine-3-carbonyl)piperidin-4-yl)methyl)-6,7-dihydropyrrolo[3,4-f]isoindole-1,3(2H,5H)-dione] | > 100 | 
12 | C[C@@H]1Cc2c([nH]c3ccccc23)[C@@H](c2ccc(C3=CCC4(CC3)CCN(C(=O)CN3Cc5cc6c(cc5C3)C(=O)N(C3CCC(=O)NC3=O)C6=O)CC4)cc2)N1CC(F)F (stereo partly drawn) [E 478, 6-(2-(9-(4-((1R,3R)-2-(2,2-difluoroethyl)-3-methyl-2,3,4,9-tetrahydro-1H-pyrido[3,4-b]indol-1-yl)phenyl)-3-azaspiro[5.5]undec-8-en-3-yl)-2-oxoethyl)-2-(2,6-dioxopiperidin-3-yl)-6,7-dihydropyrrolo[3,4-f]isoindole-1,3(2H,5H)-dione] |  | > 100
13 | C[C@H]1Cc2c([nH]c3ccccc23)[C@H](c2c(F)cc(N3CC4(CCN(C(=O)CN5Cc6cc7c(cc6C5)C(=O)N(C5CCC(=O)NC5=O)C7=O)CC4)C3)cc2F)N1CC(F)F (stereo in doubt) [E 84, 6-(2-(2-(4-((1S,3S)-2-(2,2-difluoroethyl)-3-methyl-2,3,4,9-tetrahydro-1H-pyrido[3,4-b]indol-1-yl)-3,5-difluorophenyl)-2,7-diazaspiro[3.5]nonan-7-yl)-2-oxoethyl)-2-(2,6-dioxopiperidin-3-yl)-6,7-dihydropyrrolo[3,4-f]isoindole-1,3(2H,5H)-dione] | < 10 | 
14 | C[C@@H]1Cc2c([nH]c3ccccc23)[C@@H](c2c(F)cc(N3CCC4(CCN(C(=O)CN5Cc6cc7c(cc6C5)C(=O)N(C5CCC(=O)NC5=O)C7=O)CC4)CC3)cc2F)N1CC(F)F (stereo partly drawn) [E 112, 6-(2-(9-(4-((1R,3R)-2-(2,2-difluoroethyl)-3-methyl-2,3,4,9-tetrahydro-1H-pyrido[3,4-b]indol-1-yl)-3,5-difluorophenyl)-3,9-diazaspiro[5.5]undecan-3-yl)-2-oxoethyl)-2-(2,6-dioxopiperidin-3-yl)-6,7-dihydropyrrolo[3,4-f]isoindole-1,3(2H,5H)-dione] | < 10 | 
15 | O=C1CCC(N2C(=O)c3cc4c(cc3C2=O)CN(C(=O)CN2CC3(C2)CN(c2ccc(C5=C(c6ccc(F)cc6)CCCc6cc(O)ccc65)cc2)C3)C4)C(=O)N1 (centres unmarked) [E 49, 2-(2,6-dioxopiperidin-3-yl)-6-(2-(6-(4-(8-(4-fluorophenyl)-3-hydroxy-6,7-dihydro-5H-benzo[7]annulen-9-yl)phenyl)-2,6-diazaspiro[3.3]heptan-2-yl)acetyl)-6,7-dihydropyrrolo[3,4-f]isoindole-1,3(2H,5H)-dione] | 10 to 100 | 
16 | O=C1CCC(N2C(=O)c3cc4c(cc3C2=O)CN(C(=O)CN2CCC3(CC2)CCN(c2ccc([C@@H]5c6ccc(O)cc6CC[C@@H]5c5ccccc5)cc2)CC3)C4)C(=O)N1 (mixture of isomers) [E 126, Rac-2-(2,6-dioxopiperidin-3-yl)-6-(2-(9-(4-((1R,2S)-6-hydroxy-2-phenyl-1,2,3,4-tetrahydronaphthalen-1-yl)phenyl)-3,9-diazaspiro[5.5]undecan-3-yl)acetyl)-6,7-dihydropyrrolo[3,4-f]isoindole-1,3(2H,5H)-dione] | 10 to 100 | 
17 | C[C@@H]1Cc2c([nH]c3ccccc23)[C@@H](c2c(F)cc(N3CCC(N4CCN(C(=O)CN5Cc6cc7c(cc6C5)C(=O)N(C5CCC(=O)NC5=O)C7=O)CC4)CC3)cc2F)N1CC(F)F (some centres unmarked) [E 109] | < 10 | 
